Data taken from patent EP3954371B1, “ANTI-ACETYLCHOLINESTERASE ACTIVE COMPOSITION IN CAULIS MAHONIAE AND SCREENING METHOD THEREFOR AND APPLICATION THEREOF” (Shenzhen Institute for Drug Control (Shenzhen Testing …, priority 2019, dated 2021).

Key:
AChE [1] = target: T1, AChE (Homo sapiens, UniProt P22303); format: binding; conditions: 20 µg/mL in ammonium acetate buffer (10 mM, pH = 7.4) for standards; FIGS. 4A, 4B, 5
T1 construct: purchased Sigma
Method: In a first step, a mobile phase, the ammonium acetate buffer (10 mM, pH = 7.4), was provided by a peristaltic pump at a flow rate of 5 µL/min and a sample was injected at a volume of 100 µL, and the process lasted for 40 min, then fractions were collected.
In a second step, the mobile phase was changed from the ammonium acetate buffer (10 mM, pH = 7.4) to methanol and provided at a flow rate of 20 µL/min and target components were dissociated from proteins, and the process lasted for 20 min, then fractions were collected.
A blank control monolithic column, Control-ICER, was set by the same operation method and the corresponding fractions were collected.
The collected fractions were blown to dryness with N2, dissolved in 100 µL of methanol, and analyzed through LC-MS.
LC-MS conditions: a chromatographic column Thermo Acclaim TM C18 (4.6 mm× 250 mm, 5 µm); mobile phases where acetonitrile was mobile phase A and 0.08% (v/v) formic acid and a 2 mM ammonium acetate solution were mobile phase B; a flow rate of 1.0 mL/min; an injection volume of 3 µL; a column temperature of 25 °C; and a detection wavelength of 280 nm. […]

AChE [2] = target: T1, AChE; test: synergistic effect of combined active components (FIC) by AChE assay method; format: biochemical; conditions: for effect of combinations when used as the first alkaloid: first alkaloid diluted stepwise, other alkaloids fixed at IC30; for IC20 / IC50 / IC80 / IC90: first compound diluted, added compounds fixed at IC30, unit not in table; for IC20: read-out: IC Value (Standard Deviation) IC20; for IC50: read-out: IC Value (Standard Deviation) IC50 (converted); for IC80: read-out: IC Value (Standard Deviation) IC80; for IC90: read-out: IC Value (Standard Deviation) IC90
Method: One pharmaceutical component, compound A, was selected and diluted step by step according to 1:1; the concentration of a second pharmaceutical component, compound B, was fixed to IC30; based on a size of a fractional inhibitory concentration (FIC) value, the concentration of compound A was fixed, the concentration of pharmaceutical compound B was changed, and the FIC value was determined.
Fractional effects (FEs) of the two compounds are as follows: FEA = IC50 (A+B)/IC50 (A) [formula] FEB = IC50 (A+B)/IC50 (B) [formula] FIC = FEA + FEB [formula]
By analogy, all possible combinations were calculated. Table 4 Dilution concentration and fold

AChE [3] = target: T1, AChE; test: biochemical; conditions: mean ± standard deviation, repeated three times; 10 min at 37 °C, absorbance at 405 nm
Method: For the reaction system, see Table 3. The specific steps are described below.
140 µL of phosphate buffer (PBS, 0.1 mol/L, pH = 7.4), 20 µL of AChE (0.303 U/mL) and 20 µL of sample solution were added in sequence to a 96-well plate, mixed evenly, and added with 10 µL of DTNB (3.3 mM) and 10 µL of acetylthiocholine iodide (ATCI) (15 mM). They were mixed evenly and incubated for 10 min at 37 °C, then measured absorbance at 405 nm.
The sample was replaced with PBS in a blank enzyme group. The sample was replaced with PBS in a blank enzyme-free group. The enzyme solution was replaced with PBS in the sample control group.
The inhibitory rate of the sample against AChE activity is calculated by the following formula: Inhibitory rate = [1−(Asample−Asample control)/(Ablank enzyme−Ablank enzyme−free)] × 100% [formula]
The median inhibitory concentration of AChE was calculated by testing inhibitory rates at different sample concentrations. […] Table 3 Anti-AChE activity screening method

T1 sequence (P22303 32-614): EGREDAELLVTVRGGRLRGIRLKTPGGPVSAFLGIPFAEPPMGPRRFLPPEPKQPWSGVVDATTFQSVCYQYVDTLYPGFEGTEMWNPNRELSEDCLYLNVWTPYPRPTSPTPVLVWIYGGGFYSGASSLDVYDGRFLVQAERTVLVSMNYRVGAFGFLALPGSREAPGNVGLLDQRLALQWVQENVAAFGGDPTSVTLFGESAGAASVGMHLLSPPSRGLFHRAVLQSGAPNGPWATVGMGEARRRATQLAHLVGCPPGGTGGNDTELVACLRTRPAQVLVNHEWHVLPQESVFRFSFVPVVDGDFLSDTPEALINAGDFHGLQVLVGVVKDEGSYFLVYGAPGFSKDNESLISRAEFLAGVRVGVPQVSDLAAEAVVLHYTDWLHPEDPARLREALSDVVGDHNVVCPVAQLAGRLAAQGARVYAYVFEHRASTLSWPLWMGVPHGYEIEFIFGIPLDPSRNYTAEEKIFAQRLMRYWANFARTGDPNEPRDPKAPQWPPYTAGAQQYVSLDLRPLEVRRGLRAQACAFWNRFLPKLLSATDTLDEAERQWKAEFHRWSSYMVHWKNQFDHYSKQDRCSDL

CCCC(=O)Nc1ccc(OCC(O)CNC(C)C)c(C(C)=O)c1 (centres unmarked) [acebutolol]
retention on AChE-ICER / Control-ICER (specific binding) (AChE [1]): remains neither on AChE-ICER nor on enzyme-inactive Control-ICER

COc1cc2c(cc1O)-c1cc3ccc(OC)c(OC)c3c[n+]1CC2 [Col, columbamine]
effect of combinations when used as the first alkaloid (AChE [2]): significant synergistic effect
IC20 (AChE [2]): 0.18 µg/mL
IC50 (AChE [2]): 2.75 µM
IC80 (AChE [2]): 4.8 µg/mL
IC90 (AChE [2]): 12.5 µg/mL
IC50 (AChE [3]): 2.75 µM

COc1cc2c(cc1OC)-c1cc3ccc(OC)c(OC)c3c[n+]1CC2 [Pal, palmatine]
effect of combinations when used as the first alkaloid (AChE [2]): only the irrelevant effect or the antagonistic effect
IC20 (AChE [2]): 0.1 µg/mL
IC50 (AChE [2]): 4.31 µM
IC80 (AChE [2]): 22.8 µg/mL
IC90 (AChE [2]): 48.3 µg/mL
IC50 (AChE [3]): 4.31 µM

COc1ccc2cc3[n+](cc2c1OC)CCc1cc2c(cc1-3)OCO2 [Ber, berberine]
effect of combinations when used as the first alkaloid (AChE [2]): only the irrelevant effect or the antagonistic effect
IC20 (AChE [2]): 0.26 µg/mL
IC80 (AChE [2]): 24.1 µg/mL
IC90 (AChE [2]): 50.2 µg/mL

COc1cc2c(cc1O)CC[n+]1cc3c(OC)c(OC)ccc3cc1-2 [Jat, jatrorrhizine]
effect of combinations when used as the first alkaloid (AChE [2]): significant synergistic effect
IC20 (AChE [2]): 0.39 µg/mL
IC50 (AChE [2]): 10.3 µM
IC80 (AChE [2]): 31.4 µg/mL
IC90 (AChE [2]): 63.2 µg/mL
IC50 (AChE [3]): 10.3 µM
